Laboratory results reported in PubChem BioAssay AID1963969 (Molecular Pharmacology Branch, DTP, NCI, 2024).
Several values for one entry are separate records, joined by “and”; a condition that tells them apart may be missing. Equal values may be shown once. Each block holds one compound with its values, some of them ahead of it.

System: 817829-284-R-J1-PDC multi-cell spheroid viability
Test: Anticancer human tumor 817829-284-R-J1-PDC patient-derived colon adenocarcinoma cell line growth inhibition [PI3K]
Conditions: for viability, T/C: stronger effect = lower value
From the text: Combinatorial screen of targeted agents with the PI3K inhibitors inavolisib, alpelisib, duvelisib, and copanlisib in multi-cell type tumor spheroids
A high-throughput screen of multi-cell type tumor spheroids was designed to identify active combinations of targeted small molecules and PI3K pathway inhibitors. Complex spheroids include a stromal component modeled by human endothelial cells (HUVEC) and fibroblasts modeled by human mesenchymal stem cells (MSCs). The concentration ranges selected for each drug and investigational agent were based upon clinically achievable concentrations if the clinical Cmax of the agent was known.
Compounds. The drugs and investigational agents: inavolisib (NSC800729), alpelisib (NSC765974), duvelisib (NSC772469), copanlisib (NSC816437), ipatasertib (NSC767898), afuresertib (NSC778305), talazoparib (NSC767125), sapanisertib (NSC764658), selumetinib (NSC741078), tovorafenib (DAY101, NSC766906), vemurafenib (NSC761431), ravoxertinib (NSC781343), sotorasib (NSC818433), MRTX1133 (NSC 836407), abemaciclib (NSC 768073), palbociclib (NSC758247), venetoclax (NSC 766270), SY5609 (NSC837396), enzalutamide (NSC755605), and darolutamide (NSC825331), were obtained from the National Cancer Institute (NCI) Developmental Therapeutics Program Chemical Repository. The FDA-approved anticancer drug set is available from the NCI Developmental Therapeutics Program. […] The stock solutions were prepared in dimethyl sulfoxide (DMSO, Sigma-Aldrich, St. Louis, MO, cat. D2650) at 800-fold the tested concentration and stored at -70 degrees C prior to their use. All drugs and investigational agents were tested over a range starting from a high concentration at or near the clinical Cmax and decreasing in half-log increments. If the clinical Cmax for an agent had not been determined, the highest concentration tested was 10 microM.
Cell Culture. All cells were maintained in an incubator at 37 degrees C and 5% CO2 with 95% humidity. The PDC lines were cultured according to standard operating procedures established by the NCI PDMR (https://pdmr.cancer.gov/sops/default.htm). All PDCs were thawed and cultured in Matrigel-coated flasks prepared with a working solution of 1X Ham's F-12 nutrient mix, without supplementation (Invitrogen, Waltham, MA, cat. 11765054), 100 U/mL penicillin-streptomycin (Invitrogen, cat. 15140122), and 2.5% Matrigel (Corning Inc., Corning, NY, cat. 354248) for the first three passages. The 354836-022-R-J1-PDC, 475296-252-R-J1-PDC, and 997726-040-R-J2-PDC lines were cultured in 6A media, which includes advanced DMEM/F-12 (Thermo Fisher Scientific, cat. 12634028), 10 mM HEPES (Thermo Fisher Scientific, cat. 15630080), 1X GlutaMAX supplement (Thermo Fisher Scientific, cat. 35050061), 0.1 mg/mL primocin (InvivoGen, San Diego, CA, cat. ant-pm-2), 10% defined fetal bovine serum, heat inactivated (HyClone Laboratories Inc., Logan, UT, cat. SH30070.03HI), 50% L-WRN conditioned media (ATCC, cat. CRL-3276), 1.25 mM N-Acetyl-L-cysteine (Sigma-Aldrich, cat. A9165), 10 mM nicotinamide (Sigma-Aldrich, cat. N0636), 1X B-27 supplement (Thermo Fisher Scientific, cat. 17504044), 1X N-2 supplement (Thermo Fisher Scientific, cat. 17502048), and 10 microM Y-27632 dihydrochloride (Tocris Bioscience, Bristol, United Kingdom, cat. 1254). The 624824-186-R-J2-PDC line was cultured in 6C/Colon 1B media, which includes all 6A media components plus 50 ng/mL human EGF recombinant protein (Thermo Fisher Scientific, cat. PHG0311). […]

[1] = curve of first compound, second compound 0.0316 µM
[2] = curve of first compound, second compound 0.1 µM
[3] = curve of first compound, second compound 0.316 µM
[4] = curve of first compound, second compound 1 µM
[5] = second compound 0.0316 µM, first compound 0.0316 µM
[6] = second compound 0.0316 µM, first compound 0.1 µM
[7] = second compound 0.0316 µM, first compound 0.316 µM
[8] = second compound 0.0316 µM, first compound 1 µM
[9] = second compound 0.1 µM, first compound 0.0316 µM
[10] = second compound 0.1 µM, first compound 0.1 µM
[11] = second compound 0.1 µM, first compound 0.316 µM
[12] = second compound 0.1 µM, first compound 1 µM
[13] = second compound 0.316 µM, first compound 0.0316 µM
[14] = second compound 0.316 µM, first compound 0.1 µM
[15] = second compound 0.316 µM, first compound 0.316 µM
[16] = second compound 0.316 µM, first compound 1 µM
[17] = second compound 1 µM, first compound 0.0316 µM
[18] = second compound 1 µM, first compound 0.1 µM
[19] = second compound 1 µM, first compound 0.316 µM
[20] = second compound 1 µM, first compound 1 µM
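Also: spheroids exposed to agents for seven days before readout.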
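For viability, T/C in this document: percent of vehicle DMSO control viability which is 100%.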

- IC50 (curve of compound): < 31.6 nM and 118 nM
SMILES: Cn1ncc(Cl)c1-c1cc(C(=O)NC(CN)Cc2cccc(F)c2)sc1Cl (stereo not drawn)
- viability, T/C (compound 0.0316 µM): 52.7% and 85.2%
- viability, T/C (compound 0.1 µM): 47.4% and 54.1%
- viability, T/C (compound 0.316 µM): 31.6% and 27.1%
- viability, T/C (compound 1 µM): 18.3% and 22.5%
- viability, T/C (compound 3.16 µM): 16.1% and 20.2%
- viability, T/C (compound 10 µM): 76.6% and 13.4%

- IC50 (curve of compound): 4450 nM and 4780 nM and 1420 nM
SMILES: CCCS(=O)(=O)Nc1ccc(F)c(C(=O)c2c[nH]c3ncc(-c4ccc(Cl)cc4)cc23)c1F
- viability, T/C (compound 0.0316 µM): 91.8% and 75.6% and 87.7%
- viability, T/C (compound 0.1 µM): 75.9% and 81.4% and 57.4%
- viability, T/C (compound 0.316 µM): 82.7% and 65.9% and 44.2%
- viability, T/C (compound 1 µM): 90% and 62.3% and 54.9%
- viability, T/C (compound 3.16 µM): 68% and 89.2% and 50.6%
- viability, T/C (compound 10 µM): 7.12% and 5.31% and 3%

- IC50 (curve of first compound, second compound 0.00316 µM): > 10000 nM
- IC50 (curve of first compound, second compound 0.01 µM): 8890 nM
- IC50 [1]: > 10000 nM
- IC50 [2]: > 10000 nM
- IC50 [3]: > 10000 nM
- IC50 [4]: > 10000 nM
SMILES: CC(Cn1ccc(-c2ccc(C#N)c(Cl)c2)n1)NC(=O)c1cc(C(C)O)[nH]n1 (stereo not drawn) + CC(Nc1ccc2c(c1)OCCn1cc(N3C(=O)OCC3C(F)F)nc1-2)C(N)=O
- viability, T/C (second compound 0.00316 µM, first compound 0.0316 µM): 91.8%
- viability, T/C (second compound 0.00316 µM, first compound 0.1 µM): 127%
- viability, T/C (second compound 0.00316 µM, first compound 0.316 µM): 99%
- viability, T/C (second compound 0.00316 µM, first compound 1 µM): 96.2%
- viability, T/C (second compound 0.00316 µM, first compound 3.16 µM): 94.4%
- viability, T/C (second compound 0.00316 µM, first compound 10 µM): 53.1%
- viability, T/C (second compound 0.01 µM, first compound 0.0316 µM): 140%
- viability, T/C (second compound 0.01 µM, first compound 0.1 µM): 86.2%
- viability, T/C (second compound 0.01 µM, first compound 0.316 µM): 86.4%
- viability, T/C (second compound 0.01 µM, first compound 1 µM): 70.8%
- viability, T/C (second compound 0.01 µM, first compound 3.16 µM): 63.5%
- viability, T/C (second compound 0.01 µM, first compound 10 µM): 57.4%
- viability, T/C [5]: 67.4%
- viability, T/C [6]: 96.8%
- viability, T/C [7]: 78%
- viability, T/C [8]: 78.6%
- viability, T/C (second compound 0.0316 µM, first compound 3.16 µM): 74.1%
- viability, T/C (second compound 0.0316 µM, first compound 10 µM): 59.9%
- viability, T/C [9]: 81.5%
- viability, T/C [10]: 114%
- viability, T/C [11]: 62.3%
- viability, T/C [12]: 117%
- viability, T/C (second compound 0.1 µM, first compound 3.16 µM): 79.5%
- viability, T/C (second compound 0.1 µM, first compound 10 µM): 55.3%
- viability, T/C [13]: 77.1%
- viability, T/C [14]: 66.1%
- viability, T/C [15]: 76.8%
- viability, T/C [16]: 58.7%
- viability, T/C (second compound 0.316 µM, first compound 3.16 µM): 110%
- viability, T/C (second compound 0.316 µM, first compound 10 µM): 46.4%
- viability, T/C [17]: 75.5%
- viability, T/C [18]: 39%
- viability, T/C [19]: 65.6%
- viability, T/C [20]: 72.9%
- viability, T/C (second compound 1 µM, first compound 3.16 µM): 60%
- viability, T/C (second compound 1 µM, first compound 10 µM): 50.8%

- IC50 [1]: 638 nM
- IC50 [2]: 316 nM
- IC50 [3]: 325 nM
- IC50 [4]: 122 nM
- IC50 (curve of first compound, second compound 3.16 µM): 56.9 nM
- IC50 (curve of first compound, second compound 10 µM): 6.96 nM
SMILES: CCN1CCN(Cc2ccc(Nc3ncc(F)c(-c4cc(F)c5nc(C)n(C(C)C)c5c4)n3)nc2)CC1 + Cc1nc(NC(=O)N2CCCC2C(N)=O)sc1-c1ccnc(C(C)(C)C(F)(F)F)c1
- viability, T/C (second compound 0.0316 µM, first compound 0.00316 µM): 75.4%
- viability, T/C (second compound 0.0316 µM, first compound 0.01 µM): 55.4%
- viability, T/C [5]: 90.8%
- viability, T/C [6]: 52.5%
- viability, T/C [7]: 66.5%
- viability, T/C [8]: 42.1%
- viability, T/C (second compound 0.1 µM, first compound 0.00316 µM): 91.5%
- viability, T/C (second compound 0.1 µM, first compound 0.01 µM): 70.8%
- viability, T/C [9]: 112%
- viability, T/C [10]: 46.7%
- viability, T/C [11]: 64.4%
- viability, T/C [12]: 59.1%
- viability, T/C (second compound 0.316 µM, first compound 0.00316 µM): 76.4%
- viability, T/C (second compound 0.316 µM, first compound 0.01 µM): 53.1%
- viability, T/C [13]: 74.9%
- viability, T/C [14]: 49.9%
- viability, T/C [15]: 48.2%
- viability, T/C [16]: 47.1%
- viability, T/C (second compound 1 µM, first compound 0.00316 µM): 76%
- viability, T/C (second compound 1 µM, first compound 0.01 µM): 63.5%
- viability, T/C [17]: 56.5%
- viability, T/C [18]: 47.8%
- viability, T/C [19]: 51.5%
- viability, T/C [20]: 43.7%
- viability, T/C (second compound 3.16 µM, first compound 0.00316 µM): 53.1%
- viability, T/C (second compound 3.16 µM, first compound 0.01 µM): 63.5%
- viability, T/C (second compound 3.16 µM, first compound 0.0316 µM): 61%
- viability, T/C (second compound 3.16 µM, first compound 0.1 µM): 39.4%
- viability, T/C (second compound 3.16 µM, first compound 0.316 µM): 41.6%
- viability, T/C (second compound 3.16 µM, first compound 1 µM): 42.6%
- viability, T/C (second compound 10 µM, first compound 0.00316 µM): 66.1%
- viability, T/C (second compound 10 µM, first compound 0.01 µM): 35.1%
- viability, T/C (second compound 10 µM, first compound 0.0316 µM): 51.9%
- viability, T/C (second compound 10 µM, first compound 0.1 µM): 38.4%
- viability, T/C (second compound 10 µM, first compound 0.316 µM): 46.7%
- viability, T/C (second compound 10 µM, first compound 1 µM): 41%
